Like-named read-outs stand apart in the source and are kept apart here.
Tests used:
[1] = molecular target: KRAS G12D (Homo sapiens, UniProt P01116, G12D); assay: KRAS G12D TR-FRET Assay; details: His-tagged KRAS G12D, biotinylated KRPep-2d, read-out: KRAS G12D Binding IC50
Procedure: The plate was incubated for 30 minutes at room temperature. Biotinylated KRPep-2d substrate (Amgen) was diluted to 20 nM in Assay Buffer and 2 uL was added to all wells and incubated for 1 hour at room temperature. Detection Reagent (0.4 nM LANCE Eu-W1024 Anti-6×His (Perkin Elmer AD0401), 5 nM streptavidin-d2 (Cisbio 610SADLA)) was prepared in Assay Buffer, then 4 μL was added to the plate and incubated for 1 hour at room temperature.

[2] = molecular target: KRAS G12D (Homo sapiens, UniProt P01116, C118A/G12D); assay: KRAS G12D Coupled Nucleotide Exchange Assay; format: biochemical; details: GDP-bound KRAS G12D/C118A, 2 hours pre-incubation, SOS-mediated nucleotide exchange, AlphaScreen
KRAS G12D (Homo sapiens, UniProt P01116, C118A/G12D), sequence (P01116 1-169 isoform P01116-2 G12D/C118A): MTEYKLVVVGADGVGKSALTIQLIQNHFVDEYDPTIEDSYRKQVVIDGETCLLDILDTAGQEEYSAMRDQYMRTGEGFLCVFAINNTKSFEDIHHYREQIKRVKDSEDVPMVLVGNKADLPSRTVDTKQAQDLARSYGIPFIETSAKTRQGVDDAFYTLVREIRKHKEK
Procedure: The assay plates were then read on a PerkinElmer EnVision Multilabel Reader, using AlphaScreen® technology, and data were analyzed using a 4-parameter logistic model to calculate IC50 values.

[3] = system: p-ERK (AsPC-1 cells); assay: Phospho-ERK1/2 MSD Assay; format: cell-based
Procedure: Sixteen hours prior to compound treatment, AsPC-1 cells were seeded in 96-well cell culture plates at a density of 25,000 cells/well and incubated at 37° C., 5% CO2. A compound dose-response titration was diluted in growth media, added to appropriate wells of a cell culture plate, and then incubated at 37° C., 5% CO2 for 2 hours. […] Phosphorylation of ERK1/2 in compound-treated lysates was assayed using Phospho-ERK1/2 Whole Cell Lysate kits (Meso Scale Discovery K151DWD) according to the manufacturer's protocol. Assay plates were read on a Meso Scale Discovery Sector Imager 6000, and data were analyzed using a 4-parameter logistic model to calculate IC50 values.

[4] = Homo sapiens, ASPC1, 2 h, read-out: 2 h p-ERK (AsPC-1 cells), IC50 (μM), AsPC-1 cells, 2 hours compound treatment
[5] = read-out: 2 h p-ERK (AsPC-1 cells), IC50, AsPC-1 cells, 2 hours compound treatment

KRAS G12D (Homo sapiens, UniProt P01116, G12D), sequence (P01116 1-188 isoform P01116-2 G12D): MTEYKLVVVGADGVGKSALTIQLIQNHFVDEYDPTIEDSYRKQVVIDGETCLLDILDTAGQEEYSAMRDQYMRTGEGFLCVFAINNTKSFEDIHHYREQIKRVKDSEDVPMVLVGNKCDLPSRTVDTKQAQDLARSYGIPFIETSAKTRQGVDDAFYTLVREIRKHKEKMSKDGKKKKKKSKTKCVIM

SMILES | IC50 [1] | IC50 [2] | IC50 [3, 4] | IC50 [3, 5]
CCc1c(F)ccc2cc(O)cc(-c3ncc4c(N5CCCC6(CCCO6)C5)nc(OC[C@@]56CCCN5C[C@H](F)C6)nc4c3F)c12 (stereo partly drawn) [Example 27, 5-Ethyl-6-fluoro-4-(8-fluoro-2-(((2R,7aS)-2-fluorotetrahydro-1H-pyrrolizin-7a(5H)-yl)methoxy)-4-(1-oxa-7-azaspiro[4.5]decan-7-yl)pyrido[4,3-d]pyrimidin-7-yl) naphthalen-2-ol] | 4 nM | 6 nM | 0.137 µM | 
C#Cc1c(F)ccc2cc(O)cc(-c3ncc4c(N5CCCC6(CNC(=O)O6)C5)nc(OC[C@@]56CCCN5C[C@H](F)C6)nc4c3F)c12 (single isomer, unassigned) [Example 17] | 1 nM | 1 nM | 0.123 µM | 
CCc1cccc2cc(O)cc(-c3ncc4c(N5CCCC6(CC(O)C6)C5)nc(OC[C@@]56CCCN5C[C@H](F)C6)nc4c3F)c12 (single isomer, unassigned) [Example 13] | 2 nM | 1 nM | 0.022 µM | 
CCc1c(F)ccc2cc(O)cc(-c3ncc4c(N5CCOCC6(CC(=O)N6)C5)nc(OC[C@@]56CCCN5C[C@H](F)C6)nc4c3F)c12 (stereo partly drawn) [Example 53, 9-(7-(8-Ethyl-7-fluoro-3-hydroxynaphthalen-1-yl)-8-fluoro-2-(((2R,7aS)-2-fluorotetrahydro-1H-pyrrolizin-7a(5H)-yl)methoxy)pyrido[4,3-d]pyrimidin-4-yl)-6-oxa-1,9-diazaspiro[3.6]decan-2-one] | 2 nM | 2 nM | 0.182 µM | 
CCc1c(F)ccc2cc(O)cc(-c3ncc4c(N5CCCC6(COC(=O)N6)C5)nc(OC[C@@]56CCCN5C[C@H](F)C6)nc4c3F)c12 (stereo partly drawn) [Example 40, 7-(7-(8-Ethyl-7-fluoro-3-hydroxynaphthalen-1-yl)-8-fluoro-2-(((2R,7aS)-2-fluorotetrahydro-1H-pyrrolizin-7a(5H)-yl)methoxy)pyrido[4,3-d]pyrimidin-4-yl)-3-oxa-1,7-diazaspiro[4.5]decan-2-one] | 3 nM | 4 nM | 4.32 µM | 
CCc1c(F)ccc2cc(O)cc(-c3ncc4c(N5CCCC6(CCS(=O)(=O)C6)C5)nc(OC[C@@]56CCCN5C[C@H](F)C6)nc4c3F)c12 (single isomer, unassigned) [Example 34] | 9 nM | 12 nM |  | 2.19 µM
CCc1c(F)ccc2cc(O)cc(-c3ncc4c(N5CCCC6(CCO6)C5)nc(OC[C@@]56CCCN5C[C@H](F)C6)nc4c3C)c12 (single isomer, unassigned) [Example 61] | 10 nM | 4 nM | 0.007 µM | 
Oc1cc(-c2ncc3c(N4CCCC5(CC(O)C5)C4)nc(OC[C@@]45CCCN4C[C@H](F)C5)nc3c2F)c2c(F)c(F)ccc2c1 (single isomer, unassigned) [Example 12] | 2 nM | 2 nM |  | 0.121 µM
CCc1c(F)ccc2cccc(-c3ncc4c(N5CCCC6(CNC(=O)C6)C5)nc(OC[C@@]56CCCN5C[C@H](F)C6)nc4c3F)c12 (stereo partly drawn) [Example 30, 7-(7-(8-Ethyl-7-fluoronaphthalen-1-yl)-8-fluoro-2-(((2R,7aS)-2-fluorotetrahydro-1H-pyrrolizin-7a(5H)-yl)methoxy)pyrido[4,3-d]pyrimidin-4-yl)-2,7-diazaspiro[4.5]decan-3-one] | 19 nM | 16 nM | 1.98 µM | 
CCc1c(F)ccc2cc(O)cc(-c3ncc4c(N5CCCC6(C5)CC(C)(O)C6)nc(OC[C@@]56CCCN5C[C@H](F)C6)nc4c3F)c12 (single isomer, unassigned) [Example 57] | 6 nM | 10 nM |  | 0.131 µM
CCc1c(F)ccc2cc(O)cc(-c3ncc4c(N5CCC6(CC5)COC(=O)N6)nc(OC[C@@]56CCCN5C[C@H](F)C6)nc4c3F)c12 [Example 42, 8-(7-(8-Ethyl-7-fluoro-3-hydroxynaphthalen-1-yl)-8-fluoro-2-(((2R,7aS)-2-fluorotetrahydro-1H-pyrrolizin-7a(5H)-yl)methoxy)pyrido[4,3-d]pyrimidin-4-yl)-3-oxa-1,8-diazaspiro[4.5]decan-2-one] | 7 nM | 5 nM | 3.18 µM | 
CCc1c(F)ccc2cc(O)cc(-c3ncc4c(N5CCCC6(CCS(=N)(=O)C6)C5)nc(OC[C@@]56CCCN5C[C@H](F)C6)nc4c3F)c12 (stereo partly drawn) [Example 39, 7-(7-(8-Ethyl-7-fluoro-3-hydroxynaphthalen-1-yl)-8-fluoro-2-(((2R,7aS)-2-fluorotetrahydro-1H-pyrrolizin-7a(5H)-yl)methoxy)pyrido[4,3-d]pyrimidin-4-yl)-2-imino-216-thia-7-azaspiro[4.5]decane 2-oxide] | 2 nM | 3 nM | 2.53 µM | 
CCc1c(F)ccc2cc(O)cc(-c3ncc4c(N5CCOC6(CC6)C5)nc(OC[C@@]56CCCN5C[C@H](F)C6)nc4c3F)c12 [Example 2, 5-Ethyl-6-fluoro-4-(8-fluoro-2-(((2R,7aS)-2-fluorotetrahydro-1H-pyrrolizin-7a(5H)-yl)methoxy)-4-(4-oxa-7-azaspiro[2.5]octan-7-yl)pyrido[4,3-d]pyrimidin-7-yl)naphthalen-2-ol] | 8 nM | 4 nM | 0.523 µM | 
CCc1c(F)ccc2cc(O)cc(-c3ncc4c(N5CCCC6(CCOC6)C5)nc(OC[C@@]56CCCN5C[C@H](F)C6)nc4c3F)c12 (stereo partly drawn) [Example 33, 5-Ethyl-6-fluoro-4-(8-fluoro-2-(((2R,7aS)-2-fluorotetrahydro-1H-pyrrolizin-7a(5H)-yl)methoxy)-4-(2-oxa-7-azaspiro[4.5]decan-7-yl)pyrido[4,3-d]pyrimidin-7-yl)naphthalen-2-ol] | 8 nM | 12 nM | 0.452 µM | 
CCc1c(F)ccc2cc(O)cc(-c3ncc4c(N5CCC6(CC(O)C6)C5)nc(OC[C@@]56CCCN5C[C@H](F)C6)nc4c3F)c12 (stereo partly drawn) [Example 37, 6-(7-(8-Ethyl-7-fluoro-3-hydroxynaphthalen-1-yl)-8-fluoro-2-(((2R,7aS)-2-fluorotetrahydro-1H-pyrrolizin-7a(5H)-yl)methoxy)pyrido[4,3-d]pyrimidin-4-yl)-6-azaspiro[3.4]octan-2-ol] | 85 nM | 38 nM | 2.53 µM | 
CCc1c(F)ccc2cc(O)cc(-c3ncc4c(N5CCCC6(CCC(=O)N6)C5)nc(OC[C@@]56CCCN5C[C@H](F)C6)nc4c3F)c12 (stereo partly drawn) [Example 28, 7-(7-(8-Ethyl-7-fluoro-3-hydroxynaphthalen-1-yl)-8-fluoro-2-(((2R,7aS)-2-fluorotetrahydro-1H-pyrrolizin-7a(5H)-yl)methoxy)pyrido[4,3-d]pyrimidin-4-yl)-1,7-diazaspiro[4.5]decan-2-one] | 3 nM | 5 nM | 0.923 µM | 
O=C1NCC2(CCCN(c3nc(OC[C@@]45CCCN4C[C@H](F)C5)nc4c(F)c(-c5cc(O)cc6ccc(F)c(F)c56)ncc34)C2)O1 (single isomer, unassigned) [Example 18] | 1 nM | 1 nM | 0.31 µM | 
CCc1c(F)ccc2cc(O)cc(-c3ncc4c(N5CCCC6(CC(=O)N6)C5)nc(OC[C@@]56CCCN5C[C@H](F)C6)nc4c3F)c12 (single isomer, unassigned) [Example 9] | 2 nM | 5 nM |  | 1.99 µM
CCc1c(F)ccc2cc(O)cc(-c3ncc4c(N5CCCC6(CCO6)C5)nc(OC[C@@H]5C[C@@H](F)CN5C)nc4c3F)c12 (single isomer, unassigned) [Example 60] | 6 nM | 3 nM | 0.019 µM | 
Oc1cc(Cl)c(C2CC2)c(-c2ncc3c(N4CCCC5(CC(O)C5)C4)nc(OC[C@@]45CCCN4C[C@H](F)C5)nc3c2F)c1 (single isomer, unassigned) [Example 14] | 1 nM | 1 nM | 0.164 µM | 
C#Cc1c(F)ccc2cccc(-c3ncc4c(N5CCCC6(CNC(=O)C6)C5)nc(OC[C@@]56CCCN5C[C@H](F)C6)nc4c3F)c12 (stereo partly drawn) [Example 29, 7-(7-(8-Ethynyl-7-fluoronaphthalen-1-yl)-8-fluoro-2-(((2R,7aS)-2-fluorotetrahydro-1H-pyrrolizin-7a(5H)-yl)methoxy)pyrido[4,3-d]pyrimidin-4-yl)-2,7-diazaspiro[4.5]decan-3-one] | 10 nM | 9 nM | 2.04 µM | 
CCc1cccc2cc(O)cc(-c3ncc4c(N5CCCC6(CCO6)C5)nc(OC[C@@]56CCCN5C[C@H](F)C6)nc4c3F)c12 (single isomer, unassigned) [Example 23] | 2 nM | 3 nM | 0.011 µM | 
Oc1cc(-c2ncc3c(N4CCCC5(CCO5)C4)nc(OC[C@@]45CCCN4C[C@H](F)C5)nc3c2F)c2c(Cl)cccc2c1 (single isomer, unassigned) [Example 59] | 3 nM | 2 nM | 0.006 µM | 

— patent US20240417412A1, “HETEROCYCLIC COMPOUNDS AND METHODS OF USE” (AMGEN INC., priority 2022, published 2024)
